Like-named read-outs stand apart in the source and are kept apart here. Where a SMILES comes first, the peptide text is derived from it. [ ]: non-standard residue; d: D form. The star is where a group is joined. Malonyl(2,2-Me2,histaminyl) = CC(C)(C(=O)NCCc1cnc[nH]1)C(=O)*; hArg(Et2) = CCN=C(NCC)NCCCC[C@H](N)C(=O)O; d(hArg) = N=C(N)NCCCC[C@@H](N)C(=O)O; Gly(NCH2CH2Ph) = O=C(O)CNCCc1ccccc1; Hyp = O=C(O)[C@@H]1C[C@@H](O)CN1; hArg = N=C(N)NCCCC[C@H](N)C(=O)O; NMeN = CN[C@@H](CC(N)=O)C(=O)O; Aoc(2) = CCCCCC[C@H](N)C(=O)O; Phg = N[C@H](C(=O)O)c1ccccc1; Nle = CCCC[C@H](N)C(=O)O
Experiments:
[1] = target: T1, human orexin type 1 receptor (hOX1R) (Homo sapiens, UniProt O43613); experiment: Measurement of orexin type 1 receptor agonist activity (CHO cells, FLIPR TETRA intracellular Ca2+); assay type: cell-based
T1 construct: expressed in transfected cells
T1 sequence (O43613 1-425): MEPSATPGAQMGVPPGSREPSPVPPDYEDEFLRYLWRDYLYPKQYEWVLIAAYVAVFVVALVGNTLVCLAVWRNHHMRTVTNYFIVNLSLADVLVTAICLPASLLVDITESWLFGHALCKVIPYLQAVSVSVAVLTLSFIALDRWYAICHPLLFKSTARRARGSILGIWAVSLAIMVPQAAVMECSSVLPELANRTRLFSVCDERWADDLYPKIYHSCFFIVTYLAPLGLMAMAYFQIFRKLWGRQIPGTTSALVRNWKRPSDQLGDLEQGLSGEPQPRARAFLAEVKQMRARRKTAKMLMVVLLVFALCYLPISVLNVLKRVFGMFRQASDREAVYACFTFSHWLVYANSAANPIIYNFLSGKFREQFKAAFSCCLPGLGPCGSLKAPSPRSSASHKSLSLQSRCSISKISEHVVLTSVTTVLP
From the text: (§1) In some embodiments, the assay uses cells stably expressing either human orexin type 2 or human orexin type 1 receptor. In some embodiments, the cells are obtained by inserting the Orexin receptor cDNA into pcDNA3.1(+) plasmid vector, identifying clones by G418 drug resistance selection, and/or growing a single clone for OX2R-CHO and OX1R-CHO in bulk. In some embodiments, the assay is detected using Fluorescent Imaging Plate Reader TETRA (FLIPR TETRA: manufactured by Molecular Devices). In some embodiments, the agonist activity of the test peptide is calculated assuming that the fluorescence value of the well containing only the dilution buffer is 0% and the fluorescence value of the well containing 10 nM human orexin A (Tocris) buffer is 100%.
(§2) Stable cell line generation. Obtainment of cells stably expressing either human orexin type 2 or human orexin type 1 receptor: to obtain a stable cell line the Orexin receptor cDNA was inserted into pcDNA3.1(+) plasmid vector and clones identified by G418 drug resistance selection. […] A single clone for OX2R-CHO and OX1R-CHO were grown in bulk and frozen to generate a cell bank for routine screening.
(§3) Measurement of orexin type 1 receptor agonist activity. Chinese hamster ovary (CHO) cells expressing human orexin type 1 receptor (hOX1R) were seeded in each well of 384 well black clear bottom plates (BD Flacon) at 10,000 cells per well and cultured for 24 h in an Ham's F12 (Gibco) medium containing 10% fetal calf serum (Sigma Aldrich) under the conditions of 37° C., 5% CO2. After removal of the medium, 50 μL of assay buffer 1 (0.1% bovine serum albumin (Sigma Aldrich), 20 mM HEPES (Molecular Dimensions), […] probenecid (Sigma Aldrich), 1× Calcium 5 dye (Molecular Devices) in Hank's balanced salt solution (Invitrogen)) was added, and the cells were incubated for 60 min under the conditions of 37° C., 5% CO2. A test peptide was dissolved in dimethyl sulfoxide (Sigma Aldrich) to 1 mM, and then diluted with assay buffer 2 (20 mM HEPES, Hank's balanced salt solution, 0.1% bovine serum albumin). For the reaction, a test peptide solution (10 μl) was added using Fluorescent Imaging Plate Reader TETRA (FLIPR TETRA: manufactured by Molecular Devices), a fluorescence value (excitation wavelength 488 nm, measurement wavelength 570 nm) of each well was measured every one second for 2 min, and the agonist activity was determined using the area of the fluorescence value as an indicator of intracellular Ca^2+ concentration. The agonist activity of the test peptide was calculated assuming that the fluorescence value of the well added with only the dilution buffer was 0% and the fluorescence value of the well added with 10 nM human orexin A (Tocris) buffer was 100%. As used herein, Emax indicates the value at 1 μM concentration when orexin A is converted to a full agonist (maximum value of agonist activity: 100%).

[2] = target: T2, human orexin type 2 receptor (hOX2R) (Homo sapiens, UniProt O43614); experiment: Measurement of orexin type 2 receptor agonist activity (CHO cells, FLIPR TETRA intracellular Ca2+); assay type: cell-based
T2 construct: expressed in transfected cells
T2 sequence (O43614 1-444): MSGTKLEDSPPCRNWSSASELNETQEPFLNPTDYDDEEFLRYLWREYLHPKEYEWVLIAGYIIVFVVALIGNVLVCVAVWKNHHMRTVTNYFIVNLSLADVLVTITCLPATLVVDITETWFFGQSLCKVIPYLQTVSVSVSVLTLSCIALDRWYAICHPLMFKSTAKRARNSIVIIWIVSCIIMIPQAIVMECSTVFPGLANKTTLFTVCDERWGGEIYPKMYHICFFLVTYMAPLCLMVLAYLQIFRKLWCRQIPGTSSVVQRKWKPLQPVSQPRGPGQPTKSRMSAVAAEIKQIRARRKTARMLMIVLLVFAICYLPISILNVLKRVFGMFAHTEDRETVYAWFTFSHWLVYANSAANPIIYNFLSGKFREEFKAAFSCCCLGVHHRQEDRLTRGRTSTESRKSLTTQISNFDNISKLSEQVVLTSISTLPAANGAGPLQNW
From the text: as §1, §2
as §3, with “type 2” for “type 1”, “receptor (hOX2R)” for “receptor (hOX1R) were”

[3] = 13 amino acid sequences, Example 4, read-out: OX1 pEC50 (converted)
[4] = 13 amino acid sequences, Example 4, read-out: OX2 pEC50 (converted)

CCCC[C@H](NC(=O)[C@@H](NC(=O)[C@H](CC(C)C)NC(=O)[C@@H](NC(=O)CNC(=O)[C@H](C)NC(=O)[C@H](C)NC(=O)[C@H](Cc1c[nH]cn1)NC(=O)[C@H](CC(N)=O)NC(=O)CNC(=O)[C@H](CO)NC(=O)[C@H](C)NC(=O)[C@H](Cc1c[nH]c2ccccc12)NC(=O)C(C)(C)C(=O)NCCc1cnc[nH]1)[C@@H](C)CC)[C@@H](C)O)C(N)=O [SEQ ID NO:7, CAP-TRP-ALA-SER-GLY-ASN-HIS-ALA-ALA-GLY-ILE-LEU-THR-NLE-NH2] ({Malonyl(2,2-Me2,histaminyl)}-WASGNHAAGILT[Nle]-NH2)
EC50 [1, 3]: > 316 nM
EC50 [2, 4]: > 1.58 nM

CCCC[C@H](NC(=O)[C@@H](NC(=O)[C@H](CC(C)C)NC(=O)[C@@H](NC(=O)CNC(=O)[C@@H](NC(=O)[C@H](C)NC(=O)[C@H](Cc1c[nH]cn1)NC(=O)[C@H](CC(N)=O)NC(=O)CNC(=O)[C@H](CO)NC(=O)[C@H](CCCNC(=N)N)NC(=O)[C@@H](N)Cc1c[nH]c2ccccc12)c1ccccc1)[C@@H](C)CC)[C@@H](C)O)C(N)=O [SEQ ID NO:8, TRP-ARG-SER-GLY-ASN-HIS-ALA-Phg-GLY-ILE-LEU-THR-NLE-NH2] (H-WRSGNHA[Phg]GILT[Nle]-NH2)
EC50 [1, 3]: > 316 nM
EC50 [2, 4]: > 1.58 nM

CCCCCC[C@H](NC(=O)[C@@H](NC(=O)[C@H](CC(C)C)NC(=O)[C@@H](NC(=O)CNC(=O)[C@@H](NC(=O)[C@H](C)NC(=O)[C@H](Cc1c[nH]cn1)NC(=O)[C@H](CC(N)=O)NC(=O)CN(CCc1ccccc1)C(=O)[C@H](CCCCNC(=NCC)NCC)NC(=O)[C@@H]1CCCN1C(=O)[C@H](CCCCNC(=N)N)NC(=O)[C@H](CCC(N)=O)NC(=O)C(C)(C)C(=O)NCCc1cnc[nH]1)c1ccccc1)[C@@H](C)CC)[C@@H](C)O)C(N)=O [compound 1] ({Malonyl(2,2-Me2,histaminyl)}-Q[hArg]P[hArg(Et2)][Gly(NCH2CH2Ph)]NHA[Phg]GILT[Aoc(2)]-NH2)
EC50 [1]: > 10 nM
EC50 [2]: < 0.1 nM

CCCCCC[C@H](NC(=O)[C@@H](NC(=O)[C@H](CC(C)C)NC(=O)[C@@H](NC(=O)CNC(=O)[C@@H](NC(=O)[C@H](C)NC(=O)[C@H](Cc1c[nH]cn1)NC(=O)[C@H](CC(N)=O)NC(=O)CN(CCc1ccccc1)C(=O)[C@H](CCCNC(=N)N)NC(=O)[C@@H]1CCCN1C(=O)[C@H](CCCCNC(=N)N)NC(=O)[C@H](CCC(N)=O)NC(=O)C(C)(C)C(=O)NCCc1cnc[nH]1)c1ccccc1)[C@@H](C)CC)[C@@H](C)O)C(N)=O [compound 2] ({Malonyl(2,2-Me2,histaminyl)}-Q[hArg]PR[Gly(NCH2CH2Ph)]NHA[Phg]GILT[Aoc(2)]-NH2)
EC50 [1]: > 10 nM
EC50 [2]: < 0.1 nM

CCCCCC[C@H](NC(=O)[C@@H](NC(=O)[C@H](CC(C)C)NC(=O)[C@@H](NC(=O)CNC(=O)[C@@H](NC(=O)[C@H](C)NC(=O)[C@@H]1C[C@@H](O)CN1C(=O)[C@H](CC(N)=O)N(C)C(=O)CN(CCc1ccccc1)C(=O)[C@H](CCCNC(=N)N)NC(=O)[C@@H]1CCCN1C(=O)[C@H](CCCCNC(=N)N)NC(=O)[C@H](CCC(N)=O)NC(=O)C(C)(C)C(=O)NCCc1cnc[nH]1)c1ccccc1)[C@@H](C)CC)[C@@H](C)O)C(N)=O [compound 3] ({Malonyl(2,2-Me2,histaminyl)}-Q[hArg]PR[Gly(NCH2CH2Ph)][NMeN][Hyp]A[Phg]GILT[Aoc(2)]-NH2)
EC50 [1]: > 10 nM
EC50 [2]: < 0.1 nM

CCCCCC[C@H](NC(=O)[C@@H](NC(=O)[C@H](CC(C)C)NC(=O)[C@@H](NC(=O)CNC(=O)[C@@H](NC(=O)[C@H](C)NC(=O)[C@@H]1C[C@@H](O)CN1C(=O)[C@H](CC(N)=O)N(C)C(=O)CN(CCc1ccccc1)C(=O)[C@H](CCCNC(=N)N)NC(=O)[C@@H]1CCCN1C(=O)[C@H](CCCCNC(=N)N)NC(=O)[C@@H](CCC(N)=O)NC(=O)C(C)(C)C(=O)NCCc1cnc[nH]1)c1ccccc1)[C@@H](C)CC)[C@@H](C)O)C(N)=O [compound 4] ({Malonyl(2,2-Me2,histaminyl)}-[dQ][hArg]PR[Gly(NCH2CH2Ph)][NMeN][Hyp]A[Phg]GILT[Aoc(2)]-NH2)
EC50 [1]: > 10 nM
EC50 [2]: < 0.1 nM

CCCCCC[C@H](NC(=O)[C@@H](NC(=O)[C@H](CC(C)C)NC(=O)[C@@H](NC(=O)CNC(=O)[C@@H](NC(=O)[C@H](C)NC(=O)[C@@H]1C[C@@H](O)CN1C(=O)[C@H](CC(N)=O)N(C)C(=O)CN(CCc1ccccc1)C(=O)[C@H](CCCNC(=N)N)NC(=O)[C@@H]1CCCN1C(=O)[C@@H](CCCCNC(=N)N)NC(=O)[C@H](CCC(N)=O)NC(=O)C(C)(C)C(=O)NCCc1cnc[nH]1)c1ccccc1)[C@@H](C)CC)[C@@H](C)O)C(N)=O [compound 5] ({Malonyl(2,2-Me2,histaminyl)}-Q[d(hArg)]PR[Gly(NCH2CH2Ph)][NMeN][Hyp]A[Phg]GILT[Aoc(2)]-NH2)
EC50 [1]: > 10 nM
EC50 [2]: < 0.1 nM

CCCCCC[C@H](NC(=O)[C@@H](NC(=O)[C@H](CC(C)C)NC(=O)[C@@H](NC(=O)CNC(=O)[C@@H](NC(=O)[C@H](C)NC(=O)[C@@H]1C[C@@H](O)CN1C(=O)[C@H](CC(N)=O)N(C)C(=O)CN(CCc1ccccc1)C(=O)[C@H](CCCNC(=N)N)NC(=O)[C@H]1CCCN1C(=O)[C@H](CCCCNC(=N)N)NC(=O)[C@H](CCC(N)=O)NC(=O)C(C)(C)C(=O)NCCc1cnc[nH]1)c1ccccc1)[C@@H](C)CC)[C@@H](C)O)C(N)=O [compound 6] ({Malonyl(2,2-Me2,histaminyl)}-Q[hArg][dP]R[Gly(NCH2CH2Ph)][NMeN][Hyp]A[Phg]GILT[Aoc(2)]-NH2)
EC50 [1]: > 10 nM
EC50 [2]: < 0.1 nM
